Experimental data taken from patent publication US4692517A, “C-3' acylaminooxy-7-[(2-aminothiazol-4-yl)-α-(substituted-oximino)acety l]cephalosporin derivatives” (American Home Products Corporation, priority 1986, dated 1987).
Converted amounts (≈) assume the structure as drawn.

Experiments:
Format in all cases: cell-based
[1] = system: Staphylococcus aureus ATCC 29213; test: Agar dilution MIC, Staphylococcus aureus ATCC 29213; details: ATCC29213, 18 hours at 35° C., read-out: Minimal Inhibitory Concentration (MIC)
Protocol: (§1) The compounds of the invention are tested for their antibacterial activity. The test is carried out as follows:
(§2) The organisms used in the test comprise the following:
(§3) Staphylococcus aureus (penicillin-sensitive and resistant), Pseudomonas aeruginosa, Escherichia coli, […] pneumoniae, Bordetella bronchiseptica, Proteus vulgaris, P. mirabilis, Acinetobacter calcoaceticus.
(§4) Test organisms may be added or deleted in order to reflect current clinical patterns of antibiotic susceptibility or shifts in pathogenic potential.
(§5) Organisms are normally grown for 18 hours in Brain Heart Infusion at 35° C. Cultures are adjusted with saline to MacFarland No. 1.5 standard prior to use.
(§6) Stock concentrations (e.g. 2,500 μg or units per ml) are prepared in a suitable vehicle. Two-fold dilutions are made. One ml quantities of each dilution are incorporated in 9 ml of the appropriate agar (e.g. Seed) in sterile Petri plates. The hardened surface is inoculated with test organisms by use of a Steers replicating device. The plates are incubated (e.g. 18 hours at 35° C.) and activity is determined.

[2] = system: Streptococcus faecalis ATCC 29212; test: Agar dilution MIC, Streptococcus faecalis ATCC 29212; details: Enterococcus faecalis, ATCC29212, 18 hours at 35° C., read-out: Minimal Inhibitory Concentration (MIC)
Protocol: as §1, §2, §3, §4, §5, §6

[3] = system: Enterobacter cloacae ATCC 13047; test: Agar dilution MIC, Enterobacter cloacae ATCC 13047; details: ATCC13047, 18 hours at 35° C., read-out: Minimal Inhibitory Concentration (MIC)
Protocol: as §1, §2, §3, §4, §5, §6

[4] = system: Escherichia coli ATCC 25922; test: Agar dilution MIC, Escherichia coli ATCC 25922; details: ATCC25922, 18 hours at 35° C., read-out: Minimal Inhibitory Concentration (MIC)
Protocol: as §1, §2, §3, §4, §5, §6

[5] = system: Klebsiella pneunomiae KL-1; test: Agar dilution MIC, Klebsiella pneunomiae KL-1; details: KL1, 18 hours at 35° C., read-out: Minimal Inhibitory Concentration (MIC)
Protocol: as §1, §2, §3, §4, §5, §6

[6] = system: Proteus vulgaris A 84354 1; test: Agar dilution MIC, Proteus vulgaris A 84354 1; details: A843541, 18 hours at 35° C., read-out: Minimal Inhibitory Concentration (MIC)
Protocol: as §1, §2, §3, §4, §5, §6

[7] = system: Pseudomonas aeruginosa ATCC 27853; test: Agar dilution MIC, Pseudomonas aeruginosa ATCC 27853; details: ATCC27853, 18 hours at 35° C., read-out: Minimal Inhibitory Concentration (MIC)
Protocol: as §1, §2, §3, §4, §5, §6

[8] = system: Serratia marcescens ATCC 13880; test: Agar dilution MIC, Serratia marcescens ATCC 13880; details: ATCC13880, 18 hours at 35° C., read-out: Minimal Inhibitory Concentration (MIC)
Protocol: as §1, §2, §3, §4, §5, §6

CO/N=C(\C(=O)N[C@@H]1C(=O)N2C(C(=O)OC(C)(C)C)=C(CONC(=O)OC(C)(C)C)CS[C@H]12)c1csc(N)n1 [Example 1B, (6R,7R)-7-[[(Z)-(2-amino-4-thiazolyl)(methoxyimino)acetyl]amino]-3-[[[[(1,1-dimethylethoxy)carbonyl]amino]oxy]methyl]-8-oxo-5-thia-1-azabicyclo[4.2.0]oct-2-ene-2-carboxylic acid 1,1-dimethylethyl ester]
MIC [1]: 64 µg/mL (≈ 109 µM)
MIC [2]: 128 µg/mL (≈ 219 µM)
MIC [3]: 32 µg/mL (≈ 54.7 µM)
MIC [4]: 4 µg/mL (≈ 6.84 µM)
MIC [5]: 1 µg/mL (≈ 1.71 µM)
MIC [6]: 1 µg/mL (≈ 1.71 µM)
MIC [7]: 128 µg/mL (≈ 219 µM)
MIC [8]: 16 µg/mL (≈ 27.4 µM)
